The values that follow come from patent US10414769B2, “5,8-dimethyl-9-phenyl-5,8-dihydro-6H-pyrazolo[3,4-h]quinazolin-2-yl)-(1H-pyrazol-3-yl)-amines as IGF-1R/IR inhibitors” (Boehringer Ingelheim International GmbH, priority 2015, dated 2019).

Type in all cases: biochemical
The target in one assay is T1, CAMK2D (CaMKII delta) (Homo sapiens, UniProt Q13557).
T1 construct: purchased Life Technologies PV 3373
The assay is described as follows: Z'-LYTE kinase selectivity assay CAMK2D. An excerpt: (§1) In order to compare the kinase selectivity of compounds (I) according to the invention with known prior art compounds the commercially provided SelectScreen® Kinase Profiling Service (Z′-LYTE®) was used (Life Technologies GmbH, Darmstadt, Germany) to investigate the ability of the compounds to inhibit a number of different, representatively selected human kinases. Further details regarding this service are available on the Life Technologies website at
(§2) The Z′-LYTE® biochemical assay employs a fluorescence-based, coupled-enzyme format and is based on the differential sensitivity of phosphorylated and non-phosphorylated peptides to proteolytic cleavage. The peptide substrate is labeled with two fluorophores—one at each end—that make up a FRET pair.
(§3) In the primary reaction, the kinase transfers the gamma-phosphate of ATP to a single tyrosine, serine or threonine residue in a synthetic FRET-peptide. In the secondary reaction, a site-specific protease recognizes and cleaves non-phosphorylated FRET-peptides. Phosphorylation of FRET-peptides suppresses cleavage by the Development Reagent. Cleavage disrupts FRET between the donor (i.e., coumarin) and acceptor (i.e., fluorescein) fluorophores on the FRET-peptide, whereas uncleaved, phosphorylated FRET-peptides maintain FRET. A ratiometric method, which calculates the ratio (the Emission Ratio) of donor emission to acceptor emission after excitation of the donor fluorophore at 400 nm, is used to quantitate reaction progress, as shown in the equation below.
(§4) The Test Compounds are screened at 1 μM.
The 2×CAMK2D (CaMKII delta) (# PV 3373)/Ser/Thr 04 (Z′-LYTE® Kinase Assay Kit—Ser/Thr 4 Peptide, # PV 3177) mixture is prepared in 50 mM HEPES pH 7.5, 0.01% BRIJ-35, 10 mM MgCl2, 1 mM EGTA, 4 mM CaCl2), 800 U/mL Calmodulin, 0.02% NaN3. The final 10 μL Kinase Reaction consists of 0.08-0.74 ng CAMK2D (CaMKII delta) and 2 μM Ser/Thr 04 in 50 mM HEPES pH 7.5, 0.01% BRIJ-35, 10 mM MgCl2, 1 mM EGTA, 2 mM CaCl2), 400 U/mL Calmodulin, 0.01% NaN3. After the 1 hour Kinase Reaction incubation, 5 μL of a 1:1024 dilution of Development Reagent A is added.

In another assay the target is T2, SRPK2 (Homo sapiens, UniProt P78362).
T2 construct: purchased Life Technologies PV 3829
The assay is described as follows: Z'-LYTE kinase selectivity assay SRPK2.
From the text: as §1, §2, §3, §4
The 2×SRPK2 (# PV 3829)/Ser/Thr 07 (Z′-LYTE® Kinase Assay Kit—Ser/Thr 7 Peptide, # PV 3180) mixture is prepared in 50 mM HEPES pH 7.5, 0.01% BRIJ-35, 10 mM MgCl2, 1 mM EGTA. The final 10 μL Kinase Reaction consists of 3.76-52 ng SRPK2 and 2 μM Ser/Thr 07 in 50 mM HEPES pH 7.5, 0.01% BRIJ-35, 10 mM MgCl2, 1 mM EGTA. After the 1 hour Kinase Reaction incubation, 5 μL of a 1:65000 dilution of Development Reagent A is added.

The target of the next assay is T3, CSNK2A1 (CK2 alpha 1) (Homo sapiens, UniProt P68400).
T3 construct: purchased Life Technologies PV 3248
The assay is described as follows: Z'-LYTE kinase selectivity assay CSNK2A1.
From the text: as §1, §2, §3, §4
The 2×CSNK2A1 (CK2 alpha 1) (# PV 3248)/Ser/Thr 11 (Z′-LYTE® Kinase Assay Kit—Ser/Thr 11 Peptide, # PV 3670) mixture is prepared in 50 mM HEPES pH 7.5, 0.01% BRIJ-35, 10 mM MgCl2, 1 mM EGTA. The final 10 μL Kinase Reaction consists of 0.68-25.7 ng CSNK2A1 (CK2 alpha 1) and 2 μM Ser/Thr 11 in 50 mM HEPES pH 7.5, 0.01% BRIJ-35, 10 mM MgCl2, 1 mM EGTA. After the 1 hour Kinase Reaction incubation, 5 μL of a 1:16 dilution of Development Reagent B is added.

The next assay addresses T4, RAF1 (cRAF) Y340D Y341D (Homo sapiens, UniProt P04049, Y340D/Y341D).
T4 construct: purchased Life Technologies PV 4046
The assay is described as follows: Z'-LYTE kinase selectivity assay RAF1.
From the text: as §1, §2, §3, §4
After the 1 hour Kinase Reaction incubation, 5 μL of a 1:1024 dilution of Development Reagent A is added.

In the next assay the target is T5, CHEK1 (CHK1) (Homo sapiens, UniProt O14757).
T5 construct: purchased Life Technologies P 3040
T5 sequence (O14757 1-476): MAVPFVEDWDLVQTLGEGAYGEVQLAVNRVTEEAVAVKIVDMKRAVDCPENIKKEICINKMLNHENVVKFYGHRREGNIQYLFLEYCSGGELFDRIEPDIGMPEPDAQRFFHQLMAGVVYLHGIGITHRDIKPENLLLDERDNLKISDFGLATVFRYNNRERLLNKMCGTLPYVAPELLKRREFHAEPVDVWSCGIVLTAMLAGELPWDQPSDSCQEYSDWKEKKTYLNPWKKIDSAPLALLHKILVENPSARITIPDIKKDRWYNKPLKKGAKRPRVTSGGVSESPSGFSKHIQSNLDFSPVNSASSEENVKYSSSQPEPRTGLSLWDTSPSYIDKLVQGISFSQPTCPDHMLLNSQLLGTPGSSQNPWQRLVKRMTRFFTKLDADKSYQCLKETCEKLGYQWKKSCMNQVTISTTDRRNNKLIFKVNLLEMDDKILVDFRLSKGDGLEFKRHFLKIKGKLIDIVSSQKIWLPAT
The assay is described as follows: Z'-LYTE kinase selectivity assay CHEK1.
From the text: as §1, §2, §3, §4
The 2×CHEK1 (CHK1) (# P 3040)/Ser/Thr 19 (Z′-LYTE® Kinase Assay Kit—Ser/Thr 19 Peptide, # PV 4529) mixture is prepared in 50 mM HEPES pH 7.5, 0.01% BRIJ-35, 10 mM MgCl2, 1 mM EGTA. The final 10 μL Kinase Reaction consists of 2.04-35 ng CHEK1 (CHK1) and 2 μM Ser/Thr 19 in 50 mM HEPES pH 7.5, 0.01% BRIJ-35, 10 mM MgCl2. 1 mM EGTA. After the 1 hour Kinase Reaction incubation, 5 μL of a 1:256 dilution of Development Reagent A is added.

T3 sequence (P68400 whole entry): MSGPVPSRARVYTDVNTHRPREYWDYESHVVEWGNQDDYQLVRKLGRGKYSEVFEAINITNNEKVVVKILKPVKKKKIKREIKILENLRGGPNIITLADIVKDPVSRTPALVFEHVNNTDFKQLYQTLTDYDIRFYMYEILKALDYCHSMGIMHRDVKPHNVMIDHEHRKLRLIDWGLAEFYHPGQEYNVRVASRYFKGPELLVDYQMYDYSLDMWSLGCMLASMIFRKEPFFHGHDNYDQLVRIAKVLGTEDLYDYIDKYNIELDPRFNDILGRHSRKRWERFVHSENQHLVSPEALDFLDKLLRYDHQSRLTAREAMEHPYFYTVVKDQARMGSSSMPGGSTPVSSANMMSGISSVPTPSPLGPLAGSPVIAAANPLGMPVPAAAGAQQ
T4 sequence (P04049 306-648 Y340D/Y341D limits assumed): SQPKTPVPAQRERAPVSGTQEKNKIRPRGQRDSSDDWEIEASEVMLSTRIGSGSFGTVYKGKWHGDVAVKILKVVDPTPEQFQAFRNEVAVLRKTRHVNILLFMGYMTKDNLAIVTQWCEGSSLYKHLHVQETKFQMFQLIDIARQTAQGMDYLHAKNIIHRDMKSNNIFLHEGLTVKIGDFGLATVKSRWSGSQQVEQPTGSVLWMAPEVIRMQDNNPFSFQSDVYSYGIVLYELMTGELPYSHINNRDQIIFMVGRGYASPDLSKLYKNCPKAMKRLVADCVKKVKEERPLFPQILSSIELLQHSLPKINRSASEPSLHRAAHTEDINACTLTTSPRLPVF
T2 sequence (P78362 whole entry): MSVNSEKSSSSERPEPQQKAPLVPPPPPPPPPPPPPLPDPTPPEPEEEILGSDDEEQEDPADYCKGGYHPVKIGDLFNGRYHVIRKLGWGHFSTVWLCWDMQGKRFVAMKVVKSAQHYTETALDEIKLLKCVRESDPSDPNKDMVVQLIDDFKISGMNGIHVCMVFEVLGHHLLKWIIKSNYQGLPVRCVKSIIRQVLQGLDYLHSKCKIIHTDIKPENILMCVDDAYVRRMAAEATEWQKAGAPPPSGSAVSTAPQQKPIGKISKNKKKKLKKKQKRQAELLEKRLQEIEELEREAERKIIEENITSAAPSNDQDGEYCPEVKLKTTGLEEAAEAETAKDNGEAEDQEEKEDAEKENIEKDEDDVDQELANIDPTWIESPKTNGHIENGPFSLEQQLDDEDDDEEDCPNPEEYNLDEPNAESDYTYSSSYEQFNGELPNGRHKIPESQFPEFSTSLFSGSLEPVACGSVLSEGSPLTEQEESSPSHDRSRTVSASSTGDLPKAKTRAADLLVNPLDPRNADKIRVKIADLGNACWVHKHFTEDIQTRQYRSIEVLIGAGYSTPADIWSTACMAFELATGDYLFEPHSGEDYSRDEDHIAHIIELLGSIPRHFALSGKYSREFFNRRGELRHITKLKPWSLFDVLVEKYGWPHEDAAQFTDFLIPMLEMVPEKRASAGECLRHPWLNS

Turning to `C[C@@H]1Cc2nn(C)c(-c3ccccc3)c2-c2nc(Nc3ccn(CCN4CCN(C)CC4)n3)ncc21` [Compound I-1], the inhibition (commonly the share of the control response that was lost under treatment) at 1 µM against CAMK2D (CaMKII delta) was 53%; at SRPK2, 58%; against CSNK2A1 (CK2 alpha 1), 4%; on RAF1 (cRAF) Y340D Y341D, 16%; at CHEK1 (CHK1), 11%.
For `COCCN1CCN(CCn2ccc(Nc3ncc4c(n3)-c3c(nn(C)c3-c3ccccc3)C[C@H]4C)n2)CC1` [Compound I-11], in that order: 38%, 38%, 2%, 14% and 25%.
For `C[C@@H]1Cc2nn(C)c(-c3ccccc3)c2-c2nc(Nc3ccn(CCN4CCOCC4)n3)ncc21` [Compound I-2], in that order: 47%, 79%, 10%, 40% and 23%.
Take `C[C@@H]1Cc2nn(C)c(-c3ccccc3)c2-c2nc(Nc3ccn(CCN4CCN(CC(C)(C)O)CC4)n3)ncc21` [Compound I-3]: the inhibition at 1 µM against CAMK2D (CaMKII delta) was determined as 58%; at SRPK2, 49%; at CSNK2A1 (CK2 alpha 1), 3%; against RAF1 (cRAF) Y340D Y341D, 31%; at CHEK1 (CHK1) it was 31%.
As to `C[C@@H]1Cc2nn(C)c(-c3ccccc3)c2-c2nc(Nc3ccn(CCN4CCN(CC5CCCO5)CC4)n3)ncc21` (some centres unmarked) [Compound I-9], the inhibition at 1 µM against CAMK2D (CaMKII delta) was 69%; against SRPK2 it was 49%; on CSNK2A1 (CK2 alpha 1), 1%; at RAF1 (cRAF) Y340D Y341D, 32%; against CHEK1 (CHK1) it was 26%.
As for `CC(O)CN1CCN(CCn2ccc(Nc3ncc4c(n3)-c3c(nn(C)c3-c3ccccc3)C[C@H]4C)n2)CC1` (some centres unmarked) [Compound I-7], the inhibition at 1 µM at CAMK2D (CaMKII delta) turned out to be 64%; against SRPK2 it was 58%; against CSNK2A1 (CK2 alpha 1), 8%; on RAF1 (cRAF) Y340D Y341D it was 36%; at CHEK1 (CHK1) it was 38%.
For the compound `C[C@@H]1Cc2nn(C)c(-c3ccccc3)c2-c2nc(Nc3ccn(CCN4CCN(CC(=O)OC5CCOCC5)CC4)n3)ncc21` [Compound I-8], the inhibition at 1 µM against CAMK2D (CaMKII delta) came to 40%; against SRPK2, 48%; against CSNK2A1 (CK2 alpha 1), 7%; against RAF1 (cRAF) Y340D Y341D, 25%; against CHEK1 (CHK1), 17%.
